Laboratory results as given in patent publication US9486425B2 (NESTEC S.A., priority 2012, dated 2016).

What was measured:
[1] = test system: Nrf2; test: Nrf2 reporter assay (ARE-luciferase, AREc32 cells); format: cell-based; settings: 24 h, dose range 0 to 200 μM (FIG. 3)
Experimental: Activation of Nrf2 was measured using an Nrf2 reporter assay. This assay is based on the AREc32 cell line, from CRX biosciences (Dundee, Scotland), a stably transfected MCF7 (breast adenocarcinoma) cell line that contains a luciferase gene construct under the control of the ARE. […] Luciferase activity is determined using a luciferase kit form Promega (Madison, Wis.). The luciferase activity is proportional to the activation of Nrf2.
For each run the luciferase activities, measured in Relative Light Units (RLU), of all the wells were normalized with the mean of the luciferase activity of the cells only of all the plates. Among all the samples tested the normalization procedure was found not to affect the data and this observation permits the comparison of samples measured in different runs.
For each sample the Nrf2 activation was calculated as follows: […]
The luciferase content per sample allows a semi quantification of the Nrf2 activation by reflecting the amount of the Nrf2 activating molecule. […]

[2] = test system: AREc32 cells; test: AREc32 cell viability (ATP quantification, Cell Titer-Glo); format: cell-based; settings: 24 h
Experimental: To determine the Nrf2 activation the samples were tested on AREc32 cells (seeded in 96 well plates) using 10 independent dilutions (1/2, 1/4, 1/6, 1/10, 1/15, 1/20, 1/25, 1/30, 1/40 and 1/50) and incubated for 24 hours at 37° C. in a 5% CO2/air incubator. The luciferase activity and the cell viability (ATP measurements) were determined using the Luciferase and Cell Titer-Glo kits from Promega.
The cell viability was also measured using a cell Titer-Glo kit (ATP quantification).

[3] = test system: Heme oxygenase 1 (HO-1); test: mRNA expression in hepatocytes (qPCR): heme oxygenase 1; format: cell-based; settings: rat hepatocytes, 24 h, dose range (FIG. 5)
Experimental: (§1) Hepatocytes were isolated from Sprague-Dawley male rats (190-240 g) by liver perfusion. […] After overnight incubation, the medium was removed and 2.5 ml of fresh medium containing the test substances was added. The dishes were incubated for 24 h at 37° C. in a 5% CO2/air incubator. Cell lysates for the RNA extraction were obtained by adding 400 μl of RNA lysis buffer (RA-1 with 1% v/v β-mercaptoethanol) to the cells and vigorously mixed (vortex). Total RNA was extracted from the cell lysates according manufacturer's instructions (Nucleospin RNA2 kit, Macherey-Nagel, Düren, Germany) with minor changes: 20 min of DNASE treatment and 60 μl of elution volume. Total RNAs were quantified using Ribogren kit (Molecular probes) and the quality was evaluated by capillary electrophoresis using Bionalyzer (Agilent). Reverse transcription reactions were performed with the Multiscribe reverse transcriptase enzyme in the presence of random hexamers primers (Reverse Transcription Reagent from Applied Biosystems). Gene expression quantification was performed using pre-designed TaqMan probes (Applied Biosystems). Each qPCR reaction was done in technical duplicates on 50 ng of cDNA. The arithmetic mean of two housekeeping genes (GAPDH and β-Actin) was used for normalization. The mRNA gene expression calculations are based on the ΔΔCt method: […] [table]

[4] = test system: NAD(P)H dehydrogenase quinone (Nqo1); test: mRNA expression in hepatocytes (qPCR): NAD(P)H dehydrogenase quinone; format: cell-based; settings: rat hepatocytes, 24 h, dose range (FIG. 5)
Experimental: as §1

[5] = test system: Glutamate cysteine ligase, catalytic subunit (Gclc); test: mRNA expression in hepatocytes (qPCR): glutamate cysteine ligase catalytic subunit; format: cell-based; settings: rat hepatocytes, 24 h, dose range (FIG. 5)
Experimental: as §1

[6] = test system: Glutathione-S-transferase, pi 1 (Gstp1); test: mRNA expression in hepatocytes (qPCR): glutathione-S-transferase; format: cell-based; settings: rat hepatocytes, 24 h, dose range (FIG. 5)
Experimental: as §1

[7] = test system: UDP-glucuronosyltransferase (UGT); test: mRNA expression in hepatocytes (qPCR): UDP-glucuronosyltransferase; format: cell-based; settings: rat hepatocytes, 24 h, dose range (FIG. 5)
Experimental: as §1

[8] = test system: Glutathione peroxidase 1 (Gpx1); test: mRNA expression in hepatocytes (qPCR): glutathione peroxidase 1; format: cell-based; settings: rat hepatocytes, 24 h, dose range (FIG. 5)
Experimental: as §1

[9] = test system: Glutathione peroxidase 2 (Gpx2); test: mRNA expression in hepatocytes (qPCR): glutathione peroxidase 2; format: cell-based; settings: rat hepatocytes, 24 h, dose range (FIG. 5)
Experimental: as §1

[10] = test system: Glutathione reductase (Gsr); test: mRNA expression in hepatocytes (qPCR): glutathione reductase; format: cell-based, rat; settings: liver cells (hepatocytes)
Experimental: as §1

[11] = test system: hepatocytes; test: Hepatocyte viability (LDH measurement); format: cell-based; settings: rat hepatocytes, 24 h
Experimental: Hepatocytes were isolated from Sprague-Dawley male rats (190-240 g) by liver perfusion. Cells were seeded at 2500000 cells/dish (6 cm) in 2.5 ml of Williams'E medium supplemented with 2 mM L-glutamine, 10 mM Hepes (Sigma), 1% ITS+, 1% Penicillin/Streptomycin (Sigma) and 25 nM Dexamethasone (Sigma). After overnight incubation, the medium was removed and 2.5 ml of fresh medium containing the test substances was added. The dishes were incubated for 24 h at 37° C. in a 5% CO2/air incubator.
At the end of the incubation, the cell supernatants were harvested for LDH (lactate dehydrogenase) measurement, which is an indicator of cell viability. Cells were washed once with 2.5 ml of cold PBS 1× then detached from the Petri dishes by scraping. Cells were then transferred to 1.5 ml Eppendorf tubes which were centrifuged for 1 min at 4° C. at 7000 g.

[12] = test system: NF-κB; test: NF-κB activity in HT-29 clone 34 cells (SEAP reporter and IL-8); format: cell-based, human
Experimental: Two in-vitro systems were used: human colonic cells (HT-29 clone 34) and human monocytes/macrophages (THP-1 blue cells). The human colonic adenocarcinoma HT-29 clone 34 cell line (passage 42-50) are adherent cells stably transfected with a NF-κB/SEAP reporter plasmid. They were cultured in DMEM high glucose (4.5 g/L) (Invitrogen) containing 1% of stable L-glutamine and supplemented with 10% of heat inactivated (one hour at 56° C.) Foetal Calf Serum (FCS) (Bioconcept, Allschwil, Switzerland), 1% of Penicillin/Streptomycin (Sigma) and 500 μg/ml of Geneticin (PAA, Pasching, Austria) at 37° C. in a 5% CO2/air incubator. Culture medium was renewed every two days until the cell monolayer reached ˜90% confluence. Cells were sub-cultured using 1× Trypsin/EDTA (Sigma). 10000 cells/well were seeded in 200 μl of culture medium in flat bottom white border 96 well plates (Greiner Bio One, Kremsmuenster, Austria). […] Cell culture supernatants were then collected for measurement of NF-κB activity (determination of secreted alkaline phosphatase and IL-8 production) using Phosphalight (Applied Biosystems) and IL-8 singleplex (Meso Scale, Gaithersburg, Md.) kits, respectively.

[13] = test system: HT-29 clone 34 cells; test: HT-29 clone 34 cell viability (ATP, Cell Titer-Glo); format: cell-based, human
Experimental: 10000 cells/well were seeded in 200 μl of culture medium in flat bottom white border 96 well plates (Greiner Bio One, Kremsmuenster, Austria). […] 20 μl of experimental medium containing (or not) LPS 055:B5 or rhTNF-α (100 and 10 ng/ml final, respectively) was added and the plates were incubated for 24 hours at 37° C. in a 5% CO2/air incubator.
Cell viability was determined by measuring ATP using Cell Titer-Glo kit (Promega). Briefly, remaining adherent HT-29 clone 34 cells were incubated for 10 min at room temperature under horizontal shaking (250 rpm) with 120 μl of Cell Titer-Glo reagent (pre-diluted twice in 1×PBS) and the luminescence was measured using Polarstar microplate reader (BMG, Offenburg, Germany) for 1000 ms with a gain value set to 3500.

[14] = test system: THP-1 blue cells; test: THP-1 blue cell viability (Cell Titer-Glo); format: cell-based, human
Experimental: 200000 cells/well were seeded in 100 μl of culture medium in 96 well flat bottom transparent plates. […] 20 μl of culture media containing (or not) LPS 055:B5 (Sigma) (100 ng/ml final) was added and the plates were incubated for 16 hours at 37° C. in a 5% CO2/air incubator.
Cell culture supernatants were carefully transferred to 96 well-plates for NF-κB activity measurement which is proportional to the level of secreted alkaline phosphatase. Briefly, 100 μl of supernatants were mixed with 150 μl of QuantiBlue (Invivogen) in a 96 well-plates incubated for 3 h at 37° C. before OD measurements at 620 nm with Sunrise microplate reader (Tecan, Mannedorf, Switzerland). Cell viability was determined using Cell Titer-Glo kit as described above.

- mRNA expression of heme oxygenase 1 [3]: increased
- mRNA expression of NAD(P)H dehydrogenase quinone [4]: increased
- mRNA expression of glutamate cysteine ligase catalytic subunit [5]: increased
- mRNA expression of glutathione-S-transferase [6]: increased
- mRNA expression of UDP-glucuronosyltransferase (UGT) [7]: increased
- mRNA expression of glutathione peroxidase 1 [8]: not affected
- mRNA expression of glutathione peroxidase 2 [9]: not affected
- gene expression of glutathione reductase [10]: activated gene expression
Compound: CC(=O)/C=C/C(=O)O [4-oxo-2-pentenoic acid]
- Nrf2 activation [1]: strongly activate Nrf2 in a dose dependent manner
- doses at which viability of AREc32 cells was not affected [2]: lower than 70 μM
- cell viability (LDH measurements) [11]: not affected
- dose giving the best inhibition of NF-κB activity (SEAP and IL-8) ([12]; HT-29 clone 34 cells stimulated with LPS): 50 µM
- inhibition of NF-κB activity (SEAP and IL-8 secretion) ([12]; HT-29 clone 34 cells stimulated with LPS (100 ng/ml), 4 h pre-incubation, 24 h): inhibits NF-κB activity in a dose dependent manner
- NF-κB activity (SEAP or IL-8) in the absence of LPS ([12]; HT-29 clone 34 cells, no LPS, doses tested 3 to 400 μM): no NF-κB activity was observed
- doses showing a decrease in cell viability [13]: > 50 µM
- doses toxic to cells [14]: higher than 75 μM
